The results in this text go back to patent US8859549B2, “Potassium channel modulators” (AbbVie, Inc., priority 2011, dated 2014).

The test concerns the target T1, KCNQ 2/3 channels (Homo sapiens, UniProt O43525+O43526).
T1 construct: expressed in transfected cells; host or cells: HEK293
As to the kind of experiment: KCNQ 2/3 channel activation, thallium flux FLIPR assay (BTC-AM dye). In kind it is cell-based. Particulars: for Emax: HEK293, maximum response relative to the response of 10 μM retigabine (set at 100%), read-out: % MAX; for Emax / % MAX: HEK293 KCNQ2/KCNQ3 cells; for EC50: HEK293 cells stably expressing human KCNQ2 and KCNQ3 subunits, thallium-induced fluorescence, 4 min compound incubation; for % MAX: maximum response relative to the response of 10 μM retigabine (set at 100%). The essentials:
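HEK293 cells stably expressing human KCNQ2/KCNQ3 were loaded with BTC-AM (3 μg/mL, 2 h, RT) and preincubated with compound for 4 min in pH 7.3 gluconate buffer containing 0.1 mM ouabain. Flux was triggered by 6 mM TlNO3/10 mM K2SO4 and read for 3 min; EC50 came from summed responses over basal, with maximum relative to 10 μM retigabine (100%).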

`CC(C)(C)Sc1nn(NC(=O)Cc2ccc(Cl)cc2)c(=O)c2ccccc12` [Example 198, N-[4-(tert-butylsulfanyl)-1-oxophthalazin-2(1H)-yl]-2-(4-chlorophenyl)acetamide]: the Emax amounted to 120% and the EC50 was found to be 134 nM.

`O=C(CC1CC2CCC1C2)Nn1nc(-c2ccnc(Cl)c2)c2ccccc2c1=O` (racemic) [Example 29, (±)-2-[(exo)-bicyclo[2.2.1]hept-2-yl]-N-[4-(2-chloropyridin-4-yl)-1-oxophthalazin-2(1H)-yl]acetamide]: the Emax is 137% and the midpoint of the response, the EC50, lay at 67.1 nM.

`O=C(Cc1cc(F)cc(F)c1)Nn1nc(Oc2ccccc2)c2ccccc2c1=O` [Example 38, 2-(3,5-difluorophenyl)-N-(1-oxo-4-phenoxyphthalazin-2(1H)-yl)acetamide]: the Emax was 122% and a half-maximal response (EC50) required 31.8 nM.

On to `CC(C)(C)CC(=O)Nn1nc(N2CCOCC2)c2ccccc2c1=O` [Example 135, 3,3-dimethyl-N-[4-(morpholin-4-yl)-1-oxophthalazin-2(1H)-yl]butanamide], for which the Emax is 75.3% and a half-maximal response (EC50) required 11800 nM.

In the case of `O=C(CC1CC2CCC1C2)Nn1nc(C2=CCOCC2)c2ccccc2c1=O` (racemic) [Example 6, (±)-2-[(exo)-bicyclo[2.2.1]hept-2-yl]-N-[4-(3,6-dihydro-2H-pyran-4-yl)-1-oxophthalazin-2(1H)-yl]acetamide], the Emax came out at 140% and the EC50 amounted to 515 nM.

On to `O=C(CC12CC3CC(CC1C3)C2)Nn1nc(-c2ccc(C(F)(F)F)nc2)c2ccccc2c1=O` [Example 211, 2-(hexahydro-2,5-methanopentalen-3a(1H)-yl)-N-{1-oxo-4-[6-(trifluoromethyl)pyridin-3-yl]phthalazin-2(1H)-yl}acetamide], for which the Emax turned out to be 137% and the concentration giving a half-maximal response (EC50) was 201 nM.

For `Cc1ccsc1-c1nn(NC(=O)CC2CC3CCC2C3)c(=O)c2ccccc12` (racemic) [Example 16, (±)-2-[(exo)-bicyclo[2.2.1]hept-2-yl]-N-[4-(3-methylthiophen-2-yl)-1-oxophthalazin-2(1H)-yl]acetamide], the Emax was 140% and the EC50 amounted to 116 nM.

With `COc1ccc(CC(=O)Nn2nc(N3CCOCC3)c3ccccc3c2=O)c(OC)c1` [Example 170, 2-(2,4-dimethoxyphenyl)-N-[4-(morpholin-4-yl)-1-oxophthalazin-2(1H)-yl]acetamide], the Emax worked out at 34.2%.

Turning to `CC(C)(C)OC(=O)c1nn(NC(=O)CC2CC3CCC2C3)c(=O)c2ccccc12` (racemic) [Example 94, (±)-tert-butyl 3-{[(exo)-bicyclo[2.2.1]hept-2-ylacetyl]amino}-4-oxo-3,4-dihydrophthalazine-1-carboxylate], the Emax was found to be 201% and the EC50 amounted to 76.7 nM.

On to `O=C(Cc1cccc(F)c1F)Nn1nc(N2CCOCC2)c2ccccc2c1=O` [Example 175, 2-(2,3-difluorophenyl)-N-[4-(morpholin-4-yl)-1-oxophthalazin-2(1H)-yl]acetamide], for which the Emax is 17.3%.

Consider `O=C(Cc1ccc(Cl)cc1)Nn1nc(CCO)c2ccccc2c1=O` [Example 121, 2-(4-chlorophenyl)-N-[4-(2-hydroxyethyl)-1-oxophthalazin-2(1H)-yl]acetamide], for which the Emax is 10.5%.

On to `CC(C)(C)OC(=O)NCc1nn(NC(=O)CC2CC3CCC2C3)c(=O)c2ccccc12` (racemic) [Example 44, (±)-tert-butyl[(3-{[(exo)-bicyclo[2.2.1]hept-2-ylacetyl]amino}-4-oxo-3,4-dihydrophthalazin-1-yl)methyl]carbamate], for which the Emax stood at 116% and a half-maximal effect (EC50) was put at 294 nM.

For `O=C(CC1CC2CCC1C2)Nn1nc(-c2ccc(F)nc2)c2ccccc2c1=O` (racemic) [Example 54, (±)-2-[(exo)-bicyclo[2.2.1]hept-2-yl]-N-[4-(6-fluoropyridin-3-yl)-1-oxophthalazin-2(1H)-yl]acetamide], the Emax worked out at 183% and the response was half-maximal at 408 nM (EC50).

Consider `O=C(Cc1ccc(Cl)cc1)Nn1nc(Sc2ccncc2)c2ccccc2c1=O` [Example 191, 2-(4-chlorophenyl)-N-[1-oxo-4-(pyridin-4-ylsulfanyl)phthalazin-2(1H)-yl]acetamide], for which the Emax was determined as 78.5% and the 50% effective concentration (EC50) amounted to 1320 nM.

Consider “(1R,2S,5R)-5-methyl-2-(propan-2-yl)cyclohexyl[(3-{[(4-chlorophenyl)acetyl]amino}-4-oxo-3,4-dihydrophthalazin-1-yl)methyl]carbamate [Example 180]”, for which the 50% effective concentration (EC50) was 1610 nM and the “% MAX” value is given as 57.6%.

On to `O=C(CC1CC2CCC1C2)Nn1nc(Cc2ccncc2)c2ccccc2c1=O` (racemic) [Example 97, (±)-2-[(exo)-bicyclo[2.2.1]hept-2-yl]-N-[1-oxo-4-(pyridin-4-ylmethyl)phthalazin-2(1H)-yl]acetamide], for which the Emax is 173% and a half-maximal response (EC50) required 2700 nM.

For `O=C(C[C@@H]1C[C@@H]2C=C[C@H]1C2)Nn1nc(-c2cccs2)c2ccccc2c1=O` [Example 13, 2-[(1S,2S,4S)-bicyclo[2.2.1]hept-5-en-2-yl]-N-[1-oxo-4-(thiophen-2-yl)phthalazin-2(1H)-yl]acetamide], the Emax was found to be 138% and the EC50 came out at 131 nM.

For the compound `O=C(Cc1ccc(Cl)cc1)Nn1nc(S(=O)(=O)c2cc[n+]([O-])cc2)c2ccccc2c1=O` [Example 196, 2-(4-chlorophenyl)-N-{4-[(1-oxidopyridin-4-yl)sulfonyl]-1-oxophthalazin-2(1H)-yl}acetamide], the Emax turned out to be 16.6%.

Regarding `COC(=O)c1cc(-c2nn(NC(=O)CC3CC4CCC3C4)c(=O)c3ccccc23)ccn1` (racemic) [Example 74, (±)-methyl 4-(3-{[(exo)-bicyclo[2.2.1]hept-2-ylacetyl]amino}-4-oxo-3,4-dihydrophthalazin-1-yl)pyridine-2-carboxylate], the Emax stood at 21.8%.

Take `Cc1ccsc1-c1nn(NC(=O)C[C@@H]2C[C@@H]3C=C[C@H]2C3)c(=O)c2ccccc12` [Example 17, 2-[(1S,2S,4S)-bicyclo[2.2.1]hept-5-en-2-yl]-N-[4-(3-methylthiophen-2-yl)-1-oxophthalazin-2(1H)-yl]acetamide]: the Emax was 139% and the response was half-maximal at 209 nM (EC50).

As to `N#Cc1ccc(S(=O)(=O)c2nn(NC(=O)Cc3ccc(F)cc3)c(=O)c3ccccc23)cc1` [Example 224, N-{4-[(4-cyanophenyl)sulfonyl]-1-oxophthalazin-2(1H)-yl}-2-(4-fluorophenyl)acetamide], the Emax turned out to be 75.2% and a half-maximal response (EC50) required 155 nM.

As to `O=C(Cc1ccc(Cl)cc1)Nn1nc([S+]([O-])c2ccccc2)c2ccccc2c1=O` (centres unmarked) [Example 82, 2-(4-chlorophenyl)-N-[1-oxo-4-(phenylsulfinyl)phthalazin-2(1H)-yl]acetamide], the Emax amounted to 119% and a half-maximal effect (EC50) was put at 872 nM.

For the compound `CC(C)(CC(=O)Nn1nc(-c2ccc(Cl)nc2)c2ccccc2c1=O)c1ccccc1` [Example 27, N-[4-(6-chloropyridin-3-yl)-1-oxophthalazin-2(1H)-yl]-3-methyl-3-phenylbutanamide], the Emax turned out to be 134% and the EC50 is 261 nM.

Consider `O=C(Cc1ccc(F)cc1)Nn1nc(S(=O)(=O)c2ccccc2)c2ccccc2c1=O` [Example 193, 2-(4-fluorophenyl)-N-[1-oxo-4-(phenylsulfonyl)phthalazin-2(1H)-yl]acetamide], for which the Emax came out at 87.9% and the EC50 is 79.2 nM.

As for `CC(C)COC(=O)NCc1nn(NC(=O)Cc2ccc(Cl)cc2)c(=O)c2ccccc12` [Example 185, 2-methylpropyl[(3-{[(4-chlorophenyl)acetyl]amino}-4-oxo-3,4-dihydrophthalazin-1-yl)methyl]carbamate], the Emax was 44.6% and the concentration giving a half-maximal response (EC50) came out at 1240 nM.

Regarding `CC1CN(c2nn(NC(=O)Cc3cc(F)cc(F)c3)c(=O)c3ccccc23)CC(C)O1` (centres unmarked) [Example 60, 2-(3,5-difluorophenyl)-N-[4-(2,6-dimethylmorpholin-4-yl)-1-oxophthalazin-2(1H)-yl]acetamide], the Emax was determined as 105% and the midpoint of the response, the EC50, lay at 474 nM.

For `CN1CCN(c2nn(NC(=O)Cc3ccc(Cl)cc3)c(=O)c3ccccc23)CC1` [Example 107, 2-(4-chlorophenyl)-N-[4-(4-methylpiperazin-1-yl)-1-oxophthalazin-2(1H)-yl]acetamide], the Emax was found to be 24.3%.

Regarding `O=C(CC1CC2CCC1C2)Nn1nc(-c2cccs2)c2ccccc2c1=O` (racemic) [Example 12, (±)-2-[(exo)-bicyclo[2.2.1]hept-2-yl]-N-[1-oxo-4-(thiophen-2-yl)phthalazin-2(1H)-yl]acetamide], the Emax worked out at 136% and the 50% effective concentration (EC50) is 67.4 nM.

For `CC(C)[C@H]1CC[C@H](C)C[C@@H]1OC(=O)NCc1nn(NC(=O)Cc2ccc(Cl)cc2)c(=O)c2ccccc12` [Example 186, (1S,2R,5S)-5-methyl-2-(propan-2-yl)cyclohexyl[(3-{[(4-chlorophenyl)acetyl]amino}-4-oxo-3,4-dihydrophthalazin-1-yl)methyl]carbamate], the “% MAX” value is listed as 11.8%.

With `O=C(Cc1ccc2c(c1)OCO2)Nn1nc(N2CCOCC2)c2ccccc2c1=O` [Example 174, 2-(1,3-benzodioxol-5-yl)-N-[4-(morpholin-4-yl)-1-oxophthalazin-2(1H)-yl]acetamide], the Emax was 18.7%.

On to `CCOC(=O)C(NC(=O)Cc1ccc(Cl)cc1)c1nn(NC(=O)Cc2ccc(Cl)cc2)c(=O)c2ccccc12` (centres unmarked) [Example 117, ethyl{[(4-chlorophenyl)acetyl]amino}(3-{[(4-chlorophenyl)acetyl]amino}-4-oxo-3,4-dihydrophthalazin-1-yl)acetate], for which the Emax came to 26.2%.

Broadly, the EC50 is the midpoint of the concentration-response curve. A low value points to higher potency in that assay.
